Assay results from patent publication US5834259A, “Process and composition for preparing D-aspartic acid” (Monsanto Company, priority 1996, dated 1998).

Key:
Assay type in all cases: biochemical, E. coli K12
[1] = target: T1, L-aspartate-α-decarboxylase (Escherichia coli, UniProt P0A790); assay: Re-use of cells on fresh 0.5M D/L-aspartate (Example 5); settings: re-used cells, 37° C.
T1 construct: expressed in transfected cells; host or cells: E. coli W3110 transformed with pIF309 = strain NS3291 (ATCC 98675), whole cells
Protocol: Cells that had already been used in Example 3 were put in fresh substrate to determine if they were still active.
Fresh D/L-aspartate substrate was prepared as previously described in Example 3. The cells from Example 3 were resuspended in deionized H2 O and made up to 100 ml. The pH of the substrate (900 ml, 0.5M D/L-Asp) was adjusted to 7.0 with NaOH. After placing in the 2 L fermentor, the cells (100 ml) were added. There was no pH control and deionized H2 O was used for substrate. Samples were removed over time, centrifuged and the supernatant fluid diluted appropriately for both D- and L-aspartic acid determination. Temperature was set at 37° C.

[2] = target: T1, L-aspartate-α-decarboxylase; assay: 1.0M D/L-aspartate, 50 g/l cells, reaction B (Example 6); settings: 37° C.
Protocol: 1.0M D/L-aspartate was tested as a substrate for two enzyme cell loads, 100 g/l cells, referred to here as reaction "A", and 50 g/l cells, referred to here as reaction "B".
133.1 g of D/L-aspartic acid was dissolved in approximately 600 ml deionized H2 O and pH was adjusted to 7.0 with NaOH, using 100 ml of 10N NaOH and a small amount of 1.0N NaOH. The substrate for reaction A was brought to 963 ml with deionized H2 O. The reaction was started with 137 ml cells that were stored in the cold room. For reaction B, the substrate was brought to a volume of 981.5 ml. The reaction was started with […] cells.
Both reactions were carried out in 2 L fermentors at pH 7.0 without constant adjustments and at 37° C. Samples were removed over time, centrifuged and the supernatant fluid was diluted and submitted for D- and L-aspartic acid HPLC analysis.

[3] = target: T1, L-aspartate-α-decarboxylase; assay: NH4OH neutralized 1.0M D/L-aspartate substrate (Example 7); settings: for concentration in supernatant fluid / percent remaining: 1.0M, NH4OH neutralized, 37° C.
Protocol: Cells were stored frozen at -80° C. 133.1 g (1 mol) D/L-aspartic acid was dissolved in approximately 600 ml deionized H2 O and adjusted to a pH of about 7 with concentrated NH4 OH. The final volume of substrate was brought to 963 ml to which was added 137 ml cells, freshly thawed. The mixture was placed in the 2 L fermentor and the temperature adjusted to 37° C. No automatic pH control was used, however, the pH was monitored as samples were removed and the pH adjusted with 50% NH4 OH. Samples, approximately 1 ml, were removed periodically, centrifuged, and the supernatant fluid was stored frozen prior to diluting and HPLC analysis.

[4] = target: T1, L-aspartate-α-decarboxylase; assay: Temperature study, 45° C. (Example 9); settings: 1.0M, 100 g/l cells
Protocol: 133.1 g (1 mol) of D/L-aspartic acid was dissolved in deionized H2 O and the pH was adjusted to 7.0 with 10N NaOH, approximately 100 ml. Cells, freshly thawed from -80° C., were added to achieve a final concentration of 100 g/l. Three 2 L fermentors were each charged with 963 ml of substrate solution and 137 ml of cells and then heated to 37° C. and 45° C. while mixing at 300 rpm or heated to 50° C. while mixing at 450 rpm. Samples, approximately 1 ml, were removed over time and pH adjusted to 7.0 with either NaOH or HCl. After centrifugation to remove cells, the supernatant fluid was analyzed for both D- and L-aspartic acid.

T1 sequence (P0A790 25-126): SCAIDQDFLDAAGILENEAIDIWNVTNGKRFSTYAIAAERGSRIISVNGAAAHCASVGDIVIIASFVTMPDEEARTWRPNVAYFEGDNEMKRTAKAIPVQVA
T1 sequence (P0A790 1-24): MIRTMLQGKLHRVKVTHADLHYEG

## N[C@@H](CC(=O)O)C(=O)O [L-Asp, L-aspartic acid]
[1]; 0.0000 hr
  concentration in supernatant fluid: 24.700 mg/mL
[1]; 6.2500 hr
  concentration in supernatant fluid: 17.130 mg/mL
  percent remaining: 69.352%
[1]; 15.250 hr
  concentration in supernatant fluid: 15.620 mg/mL
  percent remaining: 63.239%
[1]; 25.750 hr
  concentration in supernatant fluid: 10.870 mg/mL
  percent remaining: 44.008%
[1]; 28.000 hr
  concentration in supernatant fluid: 9.5300 mg/mL
  percent remaining: 38.583%
[1]; 44.250 hr
  concentration in supernatant fluid: 4.4200 mg/mL
  percent remaining: 17.895%
[1]; 63.500 hr
  concentration in supernatant fluid: 0.98 mg/mL
  percent remaining: 3.9676%
[1]; 65.000 hr
  concentration in supernatant fluid: 0.95 mg/mL
  percent remaining: 3.8462%
[2]; 0.0000 hr
  concentration in supernatant fluid: 57.440 mg/mL
[2]; 2.0000 hr
  concentration in supernatant fluid: 53.770 mg/mL
[3]; 0.0000 hr
  concentration in supernatant fluid: 55.740 mg/mL
[3]; 3.0000 hr
  concentration in supernatant fluid: 53.380 mg/mL
  percent remaining: 95.766%
[3]; 6.0000 hr
  concentration in supernatant fluid: 56.370 mg/mL
  percent remaining: 101.13%
[3]; 9.0000 hr
  concentration in supernatant fluid: 56.680 mg/mL
  percent remaining: 101.69%
[3]; 19.000 hr
  concentration in supernatant fluid: 59.270 mg/mL
  percent remaining: 106.33%
[3]; 23.500 hr
  concentration in supernatant fluid: 54.930 mg/mL
  percent remaining: 98.547%
[3]; 28.000 hr
  concentration in supernatant fluid: 52.620 mg/mL
  percent remaining: 94.403%
[3]; 32.500 hr
  concentration in supernatant fluid: 50.900 mg/mL
  percent remaining: 91.317%
[3]; 43.000 hr
  concentration in supernatant fluid: 53.520 mg/mL
  percent remaining: 96.017%
[3]; 49.000 hr
  percent remaining: 91.676%
[3]; NH4+ salt as compared to the Na+ salt
  rate of L-Asp utilization: slower
[4]; 0.000 hr
  concentration in supernatant fluid: 54.410 mg/mL
[4]; 2.5000 hr
  percent remaining: 92.079%
[4]; 4.0000 hr
  concentration in supernatant fluid: 47.110 mg/mL
  percent remaining: 86.583%
[4]; 6.0000 hr
  concentration in supernatant fluid: 43.130 mg/mL
  percent remaining: 79.269%
[4]; 8.0000 hr
  concentration in supernatant fluid: 39.310 mg/mL
  percent remaining: 72.248%
[4]; 10.000 hr
  concentration in supernatant fluid: 36.800 mg/mL
  percent remaining: 67.635%
[4]; 12.000 hr
  concentration in supernatant fluid: 34.540 mg/mL
  percent remaining: 63.481%
[4]; 20.000 hr
  concentration in supernatant fluid: 24.690 mg/mL
  percent remaining: 45.378%
[4]; 24.000 hr
  concentration in supernatant fluid: 23.210 mg/mL
  percent remaining: 42.658%
[4]; 29.000 hr
  concentration in supernatant fluid: 21.700 mg/mL
  percent remaining: 39.882%
[4]; 34.000 hr
  concentration in supernatant fluid: 19.310 mg/mL
  percent remaining: 35.490%
[4]; 44.000 hr
  concentration in supernatant fluid: 15.800 mg/mL
  percent remaining: 29.039%
[4]; 48.000 hr
  concentration in supernatant fluid: 16.700 mg/mL
  percent remaining: 30.822%
[4]; 68.000 hr
  concentration in supernatant fluid: 16.050 mg/mL
  percent remaining: 29.498%
[4]; 92.000 hr
  concentration in supernatant fluid: 13.370 mg/mL
  percent remaining: 24.573%
